Results: patent US6875748B2, “Compositions and methods for in vivo delivery of polynucleotide-based therapeutics” (Vical Incorporated, priority 2000, dated 2005)
Read-outs that look alike come from different tables or passages of the source.

Assays:
[1] = Osmolarity of the salt solutions; format: physicochemical; conditions: for Osm: 150 mM unless otherwise indicated
mouse quadriceps muscle [2] = assay: Luciferase expression in mouse quadriceps muscle 7 days after i.m. injection of plasmid VR1223 in salt solutions; format: in vivo; set-up: lux: unit: ng/muscle; conditions: for ng Lux/Muscle: 50 μg VR1223 in 50 μl; for ng Lux/Muscle / Fold Saline: salts at 150 mM, day 7; for luciferase expression compared with saline (words): 150 mM solutions; for lux: 7-day luciferase expression, VR1223; for Fold Saline: relative to saline
pH of the salt solutions = format: physicochemical
mouse quadriceps muscle [3] = assay: Luciferase expression in mouse quadriceps muscle after i.m. injection of plasmid VR1255 with auxiliary agents; conditions: for ability to enhance in vivo expression relative to identical composition without the compound: mouse; for luciferase expression versus 150 mM sodium phosphate alone: day 7
[4] = 150 mM unless otherwise indicated

Compound	Osm [1]	ng Lux/Muscle (mouse quadriceps muscle [2])	luciferase expression compared with saline (words) (mouse quadriceps muscle [2]; VR1223, day 7)	lux (mouse quadriceps muscle [2]; Table III-A)	lux (mouse quadriceps muscle [2]; Table III-B)	Fold Saline (mouse quadriceps muscle [2])	pH (pH of the salt solutions; [4])	ability to enhance in vivo expression relative to identical composition without the compound (mouse quadriceps muscle [3])	further results
CC(=O)C(=O)[O-].[Na+] [Sodium Pyruvate]	271 mmol/kg	364 ng/Muscle	increased luciferase expression compared with saline	364	364	3.1 Fold	6.0		
O=C([O-])CC(O)(CC(=O)[O-])C(=O)[O-].[Na+].[Na+].[Na+] [Sodium Citrate]	394 mmol/kg	90 ng/Muscle		108	108	<0.1 Fold	7.5		osmolarity [1]: 394 mmol/kg; Osm ([1]; listed as 50 mM Sodium Citrate): 164 mmol/kg; luciferase expression compared with saline (words) (mouse quadriceps muscle [2]; VR1223, day 7, listed as 150 mM sodium citrate): no ability to enhance; luciferase expression compared with saline (words) (mouse quadriceps muscle [2]; VR1223, day 7, listed as Sodium citrate): same luciferase expression as saline; luciferase expression compared with saline (words) (mouse quadriceps muscle [2]; VR1223, day 7, listed as sodium citrate): the same as with saline; lux (mouse quadriceps muscle [2]; Table III-A, listed as 50 mM Sodium Citrate): 83; lux (mouse quadriceps muscle [2]; Table III-B, listed as 50 mM Sodium Citrate): 83
Calcium Phosphate	36 mmol/kg	12 ng/Muscle	no ability to enhance	12	12	0.1 Fold	6.0		
polyoxyethylene 10 cetyl ether								no ability to enhance	
sorbitan monolaurate [SPAN 20]								no ability to enhance	
polyoxyethylene sorbitan monolaurate [Tween 20]									luciferase expression versus 150 mM sodium phosphate alone (mouse quadriceps muscle [3]): significantly increased expression
O=P([O-])([O-])OP(=O)([O-])[O-].[Na+].[Na+].[Na+].[Na+] [Sodium Pyrophosphate]	363 mmol/kg			3	3		9.0		
O=C(O)CN(CCN(CC(=O)O)CC(=O)O)CC(=O)O [EDTA, ethylenediamine tetraacetic acid]									luciferase expression versus 150 mM sodium phosphate alone (mouse quadriceps muscle [3]): significantly increased expression
CC(=O)[O-].[Na+] [Sodium Acetate]	271 mmol/kg	498 ng/Muscle	increased luciferase expression compared with saline	498	498	4.1 Fold	6.5		
[Cl-].[Cl-].[Zn+2] [Zinc Chloride]	358 mmol/kg	0.1 ng/Muscle	no ability to enhance	0.1	0.1	<0.1 Fold	5.0		
CCCCCCCC(=O)N(C)C[C@H](O)[C@@H](O)[C@H](O)[C@H](O)CO [MEGA 8, octanyol-N-methyl-glucamide]								no ability to enhance	
O=P(O)(O)O [Potassium Phosphate]	323 mmol/kg	449 ng/Muscle	stimulated expression just as well as solution of 150 mM sodium phosphate	449	449	3.8 Fold	7.5		
Actin								no ability to enhance	
O=S(=O)([O-])[O-].[Na+].[Na+] [Sodium Sulfate]	349 mmol/kg	312 ng/Muscle	increased luciferase expression compared with saline	312	312	2.6 Fold	5.5		luciferase expression, fold over saline (mouse quadriceps muscle [2]; VR1223, day 7): 2.6 fold; pH (pH of the salt solutions): 5.5
PEG-40 Stearate [MYRJ 52]								no ability to enhance	
[Cl-].[K+] [Potassium Chloride]	280 mmol/kg	124 ng/Muscle	no ability to enhance	124	124	1.0 Fold	5.5		
O=P([O-])([O-])O.[Na+].[Na+] [Sodium dibasic, Na2HPO4]	357 mmol/kg	282 ng/Muscle	only slightly stimulated over saline	282	282	2.4 Fold	8.0		
CCCCCCCCCCCCCCCC[N+](C)(C)CCCS(=O)(=O)[O-] [Zwittergent, n-hexadecyl-N,N-dimethyl-3-ammonio-1-propanesulfonate]								no ability to enhance	
[Ca+2].[Cl-].[Cl-] [Calcium Chloride]	362 mmol/kg	0.3 ng/Muscle	no ability to enhance	0.3	0.3	<0.1 Fold	5.5		
O=C(O)CN(CCOCCOCCN(CC(=O)O)CC(=O)O)CC(=O)O [EGTA]								no ability to enhance	

Compound	Osm [1]	ng Lux/Muscle (mouse quadriceps muscle [2])	luciferase expression compared with saline (words) (mouse quadriceps muscle [2]; VR1223, day 7)	lux (mouse quadriceps muscle [2]; Table III-A)	lux (mouse quadriceps muscle [2]; Table III-B)	Fold Saline (mouse quadriceps muscle [2])	pH (pH of the salt solutions; [4])	ability to enhance in vivo expression relative to identical composition without the compound (mouse quadriceps muscle [3])	further results
C[S+](C)[O-] [DMSO, dimethylsulfoxide]									luciferase expression versus 150 mM sodium phosphate alone (mouse quadriceps muscle [3]): significantly increased expression
polyoxyethylene sorbitan monooleate [Tween 80]									luciferase expression versus 150 mM sodium phosphate alone (mouse quadriceps muscle [3]): significantly increased expression
CCCCCCCCCCCCOS(=O)(=O)[O-].[Na+] [SDS, sodium dodecyl sulfate]									luciferase expression versus 150 mM sodium phosphate alone (mouse quadriceps muscle [3]): significantly increased expression
[Cl-].[Cl-].[Mg+2] [Magnesium Chloride]	360 mmol/kg	1 ng/Muscle	no ability to enhance	1	1	<0.1 Fold	5.5		
OCc1ccccc1 [benzyl alcohol]								no ability to enhance	
octyl phenol ethylene oxide condensate with about 7-8 ethylene oxide units [Triton X-114]									luciferase expression versus 150 mM sodium phosphate alone (mouse quadriceps muscle [3]): significantly increased expression
CCCCCCCCC(=O)N(C)C[C@H](O)[C@@H](O)[C@H](O)[C@H](O)CO [MEGA 9, nonanoyl-N-methyl-glucamide]								no ability to enhance	
O=P([O-])(O)O.[Na+] [Sodium monobasic, NaH2PO4]	277 mmol/kg	198 ng/Muscle	only slightly stimulated over saline	198	198	1.7 Fold	5.5		
CCCCCCCCO[C@@H]1O[C@H](CO)[C@@H](O)[C@H](O)[C@H]1O [n-octylglucoside]								no ability to enhance	
C[C@H](CCC(=O)NCCC[N+](C)(C)CCCS(=O)(=O)[O-])[C@H]1CC[C@H]2[C@@H]3[C@H](O)C[C@@H]4C[C@H](O)CC[C@]4(C)[C@H]3C[C@H](O)[C@]12C [CHAPS, 3[(3-Cholamidopropyl)dimethylammonio]-1-propanesulfonate]								no ability to enhance	
CCCCCCCCCCCCO[C@@H]1O[C@H](CO)[C@@H](O[C@H]2O[C@H](CO)[C@@H](O)[C@H](O)[C@H]2O)[C@H](O)[C@H]1O [n-Dodecylmaltoside, n-dodecylmaltoside]								no ability to enhance	
(octyl phenoxy) polyethoxyethanol [IGEPAL CA 630®]									luciferase expression versus 150 mM sodium phosphate alone (mouse quadriceps muscle [3]): significantly increased expression
Macrogol-50 stearate [MYRJ 53]								no ability to enhance	
polysorbate 40 [Tween-40®]								no ability to enhance	
polyoxyethylene 20 stearyl ether								no ability to enhance	
[Cl][Fe][Cl] [Ferrous Chloride]	362 mmol/kg	0.0 ng/Muscle	no ability to enhance	0.0	0.0	<0.1 Fold	5.0		
octyl phenol ethylene oxide condensate with about 9 ethylene oxide units [Nonidet P40]									luciferase expression versus 150 mM sodium phosphate alone (mouse quadriceps muscle [3]): significantly increased expression
OC[C@H]1O[C@H](OC[C@H]2O[C@H](OC[C@H]3O[C@H](O[C@]4(CO)O[C@H](CO)[C@@H](O)[C@@H]4O)[C@H](O)[C@@H](O)[C@@H]3O)[C@H](O)[C@@H](O)[C@H]2O)[C@H](O)[C@@H](O)[C@H]1O [Stachyose, stachyose]									luciferase expression versus 150 mM sodium phosphate alone (mouse quadriceps muscle [3]): significantly increased expression
CCCCCCC(=O)N(C)C[C@H](O)[C@@H](O)[C@H](O)[C@H](O)CO [MEGA 7, heptanoyl-N-methyl-glucamide]								no ability to enhance	
